We go through six compounds from publication doi:10.1101/2025.09.18.676322v1 (bioRxiv, 2025).

The target of data set [1] is T1, TREM2 (Homo sapiens, UniProt Q9NZC2).
T1 sequence (Q9NZC2 19-174 limits assumed): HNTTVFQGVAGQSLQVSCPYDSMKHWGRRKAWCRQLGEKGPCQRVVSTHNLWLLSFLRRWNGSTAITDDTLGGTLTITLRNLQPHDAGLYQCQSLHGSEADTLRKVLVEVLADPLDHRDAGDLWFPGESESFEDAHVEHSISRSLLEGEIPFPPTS
Description: Spectral shift assay of TREM2 binding. The following applies: for TREM2 binding in spectral shift analysis (in words): labeled TREM2 10 nM, PBST pH 7.4, 10 min at room temperature.

The nature of data set [2]: Stability in simulated gastric fluid. The format is in vitro ADME. Conditions: pH 1.6.
Data set [3] is described as follows: Stability in simulated intestinal fluid. Format: in vitro ADME. The following applies: pH 6.5.
Data set [4] in a line: Stability in human plasma. Format: in vitro ADME.
The nature of data set [5]: LogD7.4 by miniaturized shake-flask procedure. The following applies: miniaturized shake-flask procedure at pH 7.4. The format is physicochemical.
A short description of data set [6]: Caco-2 cell permeability. Format: in vitro ADME. On the technique in general: Passage across Caco-2 layers is used to estimate intestinal permeability.
A short description of data set [7]: Stability in rat liver microsomes. Format: in vitro ADME.
For data set [8] the following is noted: reference compound of the assay; cited from earlier work.
The conditions of data set [9]: reference compound of the assay; cited from earlier work. The source holds these as a separate data set.

Residues, ends and D or L forms follow the SMILES beside them.

A word on the half-life: it is the time in which the quantity being followed falls by half. A low value points to rapid decline. In general, share remaining refers to what is left of the initial amount, in per cent. Low readings indicate more turnover, high ones less turnover. A word on the Papp A→B: it is how fast a substance crosses the layer from the apical side. As usually defined, the Papp B→A is how fast a substance crosses the layer from the basolateral side. As for `CC(C)[C@@H]1NC(=O)CNC(=O)[C@H](C)NC(=O)[C@H](CO)NC(=O)[C@H](C(C)C)NC(=O)[C@H](CO)NC(=O)[C@H](C(C)C)NC(=O)[C@H](C)NC(=O)CNC(=O)[C@H](CC(=O)O)NC(=O)[C@H](CCCCN)NC(=O)[C@H](CCC(=O)O)NC(=O)[C@H]([C@@H](C)O)NC(=O)[C@H]([C@@H](C)O)NC1=O` [TP4] (cyclo(AGVTTEKDGAVSVS); ring closure inferred), the “TREM2 binding in spectral shift analysis (in words)” value in [1] is recorded as “measurable responses”. The “equilibrium dissociation constant (Kd), in words” value in data set [1] (summary statement in the introduction, assay not named) is listed as “sub-millimolar range”. Further, the results for the half-life in data set [2], in data set [3] and in data set [7] were 0.93 h, 5.82 h and 3.94 h, respectively. Also, in [4], the share remaining at 1 h is 83.1%. Also, the LogD7.4 in data set [5] was 1.03. Also, the Papp A→B in data set [6] is 1.32 ×10⁻⁶ cm/s. Besides, in data set [6], the Papp B→A came out at 2.47 ×10⁻⁶ cm/s.
For `CC[C@H]1OC(=O)[C@H](C)[C@@H](O[C@H]2C[C@@](C)(OC)[C@@H](O)[C@H](C)O2)[C@H](C)[C@@H](O[C@@H]2O[C@H](C)C[C@H](N(C)C)[C@H]2O)[C@](C)(O)C[C@@H](C)C(=O)[C@H](C)[C@@H](O)[C@]1(C)O` [erythromycin], in [8], the “Stability in intestinal simulated fluids, t1/2” value was 7.55 h.
For `CC(C)[N+](C)(CCOC(=O)C1c2ccccc2Oc2ccccc21)C(C)C` [propantheline], the “Human plasma stability, t1/2” value in [9] is reported as 2.6 min.
For the compound cyclo(GNSVNVETGARL) [TP1], the “TREM2 binding in spectral shift analysis (in words)” value in [1] is recorded as “measurable responses”.
In the case of cyclo(GSSVNVQTGEVL) [TP2], the “TREM2 binding in spectral shift analysis (in words)” value in [1] is recorded as “measurable responses”.
Regarding cyclo(LPGRLVSLPDGRHLC) [TP3], the “TREM2 binding in spectral shift analysis (in words)” value in data set [1] is recorded as “did not exhibit detectable binding”.
